How the values were obtained:
[1] = buffer, pH 2
[2] = acid lability (half life) of the 2′-orthoester protecting group on uridine; conditions: pH 2, 25° C.; after ester hydrolysis of the ACE orthoester

In the case of `O=c1ccn(C2OC(CO)C(O)C2OC(OCCO)OCCO)c(=O)[nH]1` (centres unmarked) [2′-modified uridine], the half life [1] is reported as under 45 s and the “times more labile (than 2′-ACE-uridine)” value [2] is reported as 10 times.
